Data as given in PMC9271048, “Probing strigolactone perception mechanisms with rationally designed small-molecule agonists stimulating germination of root parasitic weeds” (Nature Communications, 2022).
Like-named read-outs stand apart in the source and are kept apart here.

Assays:
ShHTL7 [1] = target: T1, ShHTL7 (Striga hermonthica, UniProt A0A0M3PNA2); test: Competitive inhibition of ShHTL7 with Yoshimulactone Green (YLG) as substrate; type: biochemical
Procedure: Based on the structural feature of the lead compound 2h, we selected three regions to perform further modification (Supplementary Fig. 6), to try to further improve bioactivity. Insertion of a carbonyl group between the bicyclo[2.2.1]hept-5-en-2-yl group and the piperazine ring was detrimental to binding affinity (Supplementary Fig. 6, region A). Removal of an oxygen atom in region B was found unfavorable to binding affinity as well. Therefore, we focused on modifying the benzene ring (region C) for 2h. A series of compounds with different groups at region C was synthesized (Supplementary Scheme 1). […] As SPR just measures the binding ability, another independent assay by using Yoshimulactone Green (YLG) as the fluorescent substrate was performed to determine the half-maximal inhibitory concentration (IC50) of these compounds against ShHTL7[22].
The excitation and emission wavelengths of YLG are 480 and 520 nm, respectively. We used a fluorescence spectrophotometer (CARY Eclipse) to detect the fluorescence intensity change of YLG during the enzymatic hydrolysis assay process. All the testing compounds and YLG were dissolved in DMSO and prepared as stock solutions just before use. […] The changes of fluorescence at 520 nm of each well were recorded every 1 min for 30 min. Using the reaction mixture without adding enzyme and tested compounds as the background control. After subtracting the background hydrolysis, a linear fluorescence increase in 8 min was used for further inspection. The IC50 values were determined via fitting relative inhibition percentages with the varying concentrations of compounds in Microsoft Excel.

P. aegyptiaca seeds = test: P. aegyptiaca seed germination assay; type: in vivo, Phelipanche aegyptiaca; design: P. aegyptiaca germination EC50 values, source data average: unit not given here; P. aegyptiaca seed germination activity, source data average: unit of the concentration uncertain; settings: for P. aegyptiaca germination(%): Supplementary Table 1, compounds tested at 10 μM, means ± SD, n = 3; for P. aegyptiaca germination EC50 values, source data average: source data of Fig. 2c and Supplementary Fig. 8b, average of 3; for P. aegyptiaca seed germination activity, source data average: Supplementary Fig. 9b
Procedure: P. aegyptiaca seeds were harvested from Xinjiang province, China in 2017. The seeds were surface sterilized using 1% NaClO solution for 2 min and then washed with distilled water six times. For seed germination assay, about 20 pieces of glass fiber-filter paper discs (15 mm diameter, Whatman GF/B) were placed separately on two layers of filter papers (9 cm diameter, Whatman) in a Petri dish. Five milliliters of distilled water was added to each Petri dish to wet the papers. Approximately 40–90 sterilized seeds were spread onto each glass fiber-filter paper disc. After the seeds were conditioned in the dark at 25 °C for 4 days[48], glass fiber-filter paper discs were blotted dry on filter papers (9 cm) and transferred to the wells of 24-well cell culture plates. The testing compounds were dissolved in acetone and diluted with H2O (VH2O/Vacetone = 999/1) just before use[49]. rac-GR24 and 1‰ acetone solution were used as positive and negative controls, respectively. One hundred microliters of the test solution was added to each well of the plates, and all treatments were performed in three biological repeats. The plates were sealed and incubated in the dark at 25 °C for a week. The experiments were performed at least three times. The germinated seeds were observed by using an electronic magnifier at ×20 magnification.

ShHTL7 [2] = target: T1, ShHTL7; test: biochemical; type: binding
Procedure: We used a sensitive, high-throughput Surface plasmon resonance (SPR) method to examine the binding affinities of the 51 candidates to the recombinant ShHTL7 protein, which was immobilized on the CM5 sensor chip. rac-GR24 was used as a positive control.
The interactions of small molecules with recombinant ShHTL7 were evaluated using the Biacore T200 system (GE Healthcare, USA) at 25 °C[47]. The purified ShHTL7 protein was immobilized on a CM5 sensor chip using the standard amine coupling procedure. […] PBS-P (10 mM phosphate buffer, 2.7 mM KCl, 137 mM NaCl, 0.05% Surfactant P20) containing 0.5% DMSO was used as the running buffer. For the screening experiments, candidates with different structures at 50 μM in the running buffer were injected individually at a flow rate of 30 μL min^−1. For binding affinity studies, compounds with different concentrations in running buffer were used. During the experiments, both the contact and dissociation times were set as 1 min. Data analysis was performed using the Biacore Evaluation Software (T200 Version 2.0). The affinity values (KD) were obtained by the kinetics analysis or the steady-state affinity method.

ShHTL7 [3] = target: T1, ShHTL7; test: ShHTL7-hydrolysis reaction analysis (HPLC); type: biochemical; settings: authors' response to reviewer
Procedure: Compounds 4a, (R)- and (S)-4a, 4g-i, and rac-GR24 were dissolved in DMSO and prepared as stock solution ([…]) just before use. A 200 μL of the reaction solution consisting of PBS buffer (pH 7.3), 10 μM samples, and 10 μg recombinant ShHTL7 or its mutants was incubated at 30 °C for 30 min; with the reaction solution (200 μL) containing PBS buffer (pH 7.3) and 10 μM samples as the blank control[40],[52]. Subsequently, the reaction was terminated by adding 200 μL of methanol, and then the reaction mixture was shaken for 10 s and centrifuged at 5310 × g for 60 s. The supernatant was filtered and the remaining amount of samples was analyzed by HPLC. The relative percentages of hydrolysis were obtained by using the amount of compounds in blank control as reference.
Supplementary Fig. 11. Hydrolysis of 4a, (R)-4a, (S)-4a, 4g-i, and rac-GR24 by ShHTL7 at 30 °C for 30 min. The remaining amounts of compounds in recombinant ShHTL7 protein and buffer solution were determined by HPLC analysis. The relative percentages of hydrolysis were calculated by using the amount of compounds in the buffer as reference. The error bar indicates SD (n = 3 biologically independent experiments).
(1 picture or pasted object on this page, not shown here)

[4] = YLG used as the substrate, means ± SD, n = 3, read-out: IC50 (Supplementary Table 1)
[5] = Supplementary Table 7, binding affinities between ShHTL7 and agonists by SPR, read-out: KD/μM
[6] = wild-type ShHTL7, average of 3, source data of Fig. 2a,b, Supplementary Figs. 8a, 9a, 20b, read-out: IC50, competitive ShHTL7 inhibition (YLG), source data average
[7] = IC50 (Supplementary Table 1), YLG used as the substrate, means ± SD, n = 3
[8] = IC50, competitive ShHTL7 inhibition (YLG), source data average, wild-type ShHTL7, average of 3, source data of Fig. 2a,b, Supplementary Figs. 8a, 9a, 20b

T1 sequence (A0A0M3PNA2 entry or part of it): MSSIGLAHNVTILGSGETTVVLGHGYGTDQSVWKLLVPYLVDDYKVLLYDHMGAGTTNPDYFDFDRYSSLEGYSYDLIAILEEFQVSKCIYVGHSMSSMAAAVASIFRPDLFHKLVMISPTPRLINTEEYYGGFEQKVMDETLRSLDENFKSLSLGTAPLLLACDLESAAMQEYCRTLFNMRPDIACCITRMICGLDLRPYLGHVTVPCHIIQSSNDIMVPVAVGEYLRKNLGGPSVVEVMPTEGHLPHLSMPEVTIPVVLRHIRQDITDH

With `Cc1ccc(CCC(=O)N2CCN(CC3CC4C=CC3C4)CC2)cc1` (centres unmarked) [3r] the IC50 (ShHTL7 [1]; [4]) was 34.2 ± 6.9 µM and the “P. aegyptiaca germination(%)” value (P. aegyptiaca seeds) was 34.2±6.9%.
`Cc1ccc(OCC(=O)N2CCN(C(=O)C3CC4C=CC3C4)CC2)cc1` (centres unmarked) [3a] was tested, and the IC50 (ShHTL7 [1]; [4]) was 35.6 ± 3.84 µM and the “P. aegyptiaca germination(%)” value (P. aegyptiaca seeds) was 19.4%.
In the case of `O=C(COc1ccc(Cl)cc1Cl)N1CCN(CC2CC3C=CC2C3)CC1` (centres unmarked) [3j], the IC50 (ShHTL7 [1]; [4]) is reported as 9.22 ± 0.35 µM and the “P. aegyptiaca germination(%)” value (P. aegyptiaca seeds) is reported as 54.7%.
`O=C(COc1ccc2ccccc2c1Br)N1CCN(CC2CC3C=CC2C3)CC1` (centres unmarked) [3c] was tested, and the IC50 (ShHTL7 [1]; [4]) was 6.12 ± 0.34 µM and the “P. aegyptiaca germination(%)” value (P. aegyptiaca seeds) was 17.1%.
With `Cc1ccc(CC(=O)N2CCN(CC3CC4C=CC3C4)CC2)cc1` (centres unmarked) [3b] the IC50 (ShHTL7 [1]; [4]) was 23.2 ± 1.59 µM and the “P. aegyptiaca germination(%)” value (P. aegyptiaca seeds) was 8.9%.
For `CC1=CC(OC(=O)N2CCN(C(=O)COc3ccc(Cl)cc3C)CC2)OC1=O` (centres unmarked) [4e], the Kd (ShHTL7 [2]; [5]) was 6.33 ± 3.1 µM, the IC50 (ShHTL7 [1]; [6]) was 2.35 µM and the “P. aegyptiaca germination EC50 values, source data average” value (P. aegyptiaca seeds) was 8.242.
`C1=CC2CC1CC2CN1CCNCC1` (centres unmarked) [ZJT1] was tested, and the IC50 (ShHTL7 [1]; YLG used as the substrate, read-out: IC50 (Supplementary Table 1), symbol) was over 400 µM and the “P. aegyptiaca germination(%)” value (P. aegyptiaca seeds) was 1.6%.
`CCCCOc1ccc(S(=O)(=O)N2CCN(C(=O)OC3C=C(C)C(=O)N3C)CC2)cc1` (centres unmarked) [4j] was tested, and the Kd (ShHTL7 [2]; [5]) was 18.1 ± 6.29 µM, the IC50 (ShHTL7 [1]; [6]) was 105 µM and the “P. aegyptiaca seed germination activity, source data average” value (from here on “P. aegyptiaca seed germination activity”) (P. aegyptiaca seeds; 0.1 (unit uncertain) as printed) was 4.315%. The “P. aegyptiaca seed germination activity” value (P. aegyptiaca seeds; 1 (unit uncertain) as printed) was 14.0733% and the “P. aegyptiaca seed germination activity” value (P. aegyptiaca seeds; 10 (unit uncertain) as printed) was 45.7326%.
`O=C(c1cccs1)N1CCN(CC2CC=CCC2)CC1` (centres unmarked) [2b] gave a Kd (ShHTL7 [2]) of 10.5 ± 0.67 µM.
In the case of `Cc1cc(Br)ccc1OCC(=O)N1CCN(CC2CC3C=CC2C3)CC1` (centres unmarked) [3f], the Kd (ShHTL7 [2]) is reported as 0.18 µM, the IC50 (ShHTL7 [1]; [7]) is reported as 7.45 ± 1.03 µM and the IC50 (ShHTL7 [1]; [8]) is reported as 6.11 µM. For the same molecule, the “P. aegyptiaca germination(%)” value (P. aegyptiaca seeds) was 8.3%.
`CC1=CC(OC(=O)N2CCN(C(=O)C(F)(F)Oc3ccc(Br)cc3C)CC2)OC1=O` (centres unmarked) [4f] was tested, and the Kd (ShHTL7 [2]; [5]) was 1.96 ± 0.29 µM, the IC50 (ShHTL7 [1]; [6]) was 4.25 µM and the “P. aegyptiaca germination EC50 values, source data average” value (P. aegyptiaca seeds) was 6.406.
For `O=C(COc1ccccc1)N1CCN(CC2CC3C=CC2C3)CC1` (centres unmarked) [3l], the IC50 (ShHTL7 [1]; [4]) was 18 ± 1.32 µM and the “P. aegyptiaca germination(%)” value (P. aegyptiaca seeds) was 26.3%.
In the case of `CS(=O)(=O)c1ccc(OCC(=O)N2CCN(CC3CC4C=CC3C4)CC2)cc1` (centres unmarked) [3q], the IC50 (ShHTL7 [1]; [4]) is reported as 24.1 ± 6.49 µM and the “P. aegyptiaca germination(%)” value (P. aegyptiaca seeds) is reported as 34.8%.
With `O=C(COc1c(F)c(F)c(F)c(F)c1F)N1CCN(CC2CC3C=CC2C3)CC1` (centres unmarked) [3g] the Kd (ShHTL7 [2]) was 0.47 µM, the IC50 (ShHTL7 [1]; [7]) was 0.23 ± 0.03 µM and the IC50 (ShHTL7 [1]; [8]) was 2.08 µM. The “P. aegyptiaca germination(%)” value (P. aegyptiaca seeds) was 5.7%.
In the case of `Cc1cc(F)ccc1OCC(=O)N1CCN(CC2CC3C=CC2C3)CC1` (centres unmarked) [3d], the Kd (ShHTL7 [2]; recombinant ShHTL7 immobilized on CM5 chip, 25 °C, read-out: KD (SPR)) is reported as 1.86 µM, the IC50 (ShHTL7 [1]; [4]) is reported as 10.7 ± 2.93 µM and the “P. aegyptiaca germination(%)” value (P. aegyptiaca seeds) is reported as 23.1%.
For `O=C(c1ccc([N+](=O)[O-])cc1)N1CCN(CC2CC3C=CC2C3)CC1` (centres unmarked) [2e], the Kd (ShHTL7 [2]) was 8.77 ± 0.11 µM and the “hydrolysis by ShHTL7” value (ShHTL7 [3]) was “could not be hydrolyzed by ShHTL7”.
